Assay results reported in patent US20150274680A1, “THERAPEUTIC OR PROPHYLACTIC AGENT FOR TUMOR LYSIS SYNDROME” (University of Fukui, priority 2012, published 2015).

Columns and labels:
Format in all cases: in vivo, human
[1] = system: malignant tumor patients with tumor lysis syndrome; assay: Prophylactic effect on serum uric acid levels when chemotherapy is performed on malignant tumor patients with tumor lysis syndrome (Example 3); settings: oral once daily from before chemotherapy, adult and pediatric patients; written in present tense, no data
Protocol: In order to investigate prophylactic effects of febuxostat on tumor lysis syndrome, febuxostat is orally administered once a day, daily, from before chemotherapy is performed on a malignant tumor adult patient with tumor lysis syndrome, and an assessment is made by using serum uric acid levels as indicators. In addition, also for a malignant tumor pediatric patient with tumor lysis syndrome, similar investigation is conducted with febuxostat.

[2] = system: patients with hematological malignancies at low or intermediate risk for tumor lysis syndrome; assay: Prophylactic effect on serum uric acid, renal function and urinary uric acid excretion in patients with hematological malignancies receiving chemotherapy (Example 2)
Protocol: In order to investigate the prophylactic effects of febuxostat on tumor lysis syndrome, 10 mg of febuxostat (the starting dose in gout and hyperuricemia) was orally administered once a day, daily, from just before or the day before chemotherapy was performed on patients with hematological malignancies at low or intermediate risk for tumor lysis syndrome, and the serum uric acid level and the renal function on the fifth day of administration were compared with those before the start of febuxostat administration. For cases in which urine collection was possible, the urinary excretion level of uric acid on the fifth day of administration was compared with that before the start of febuxostat administration. […] Seven male and female cases (6 males and 1 female), aged 36 to 79 (median 70), acute myeloid leukemia (AML 3 cases), diffuse large B-cell lymphoma (DLBCL 2 cases), chronic myelomonocytic leukemia (CMML 1 case), chronic myeloid leukemia (CML 1 case), white blood cell count (WBC) 3,200 to 347,000/μL [table]

[3] = system: high-risk tumor lysis syndrome patient; assay: Therapeutic effect on serum uric acid levels and renal function in a high-risk tumor lysis syndrome patient (Example 1)
Protocol: In order to investigate the therapeutic effects of febuxostat on a high-risk tumor lysis syndrome patient, a high-risk patient with tumor lysis syndrome which had occurred without antitumor therapy, and already presented hyperuricemia, was given transfusions of fresh frozen plasma and packed red blood cells, and then in addition to increasing a urine volume by supplying fluid and to alkalizing urine, febuxostat (60 mg) was orally administered for 3 days, and the serum uric acid levels and renal function were compared with those before administration of febuxostat.
A person, Myelodysplastic syndrome (MDS), White blood cell count (WBC) 15400/μL

Cc1nc(-c2ccc(OCC(C)C)c(C#N)c2)sc1C(=O)O [febuxostat, 2-[3-cyano-4-(2-methylpropoxyl)phenyl]-4-methylthiazole-5-carboxylic acid]
Prevention of tumor lysis syndrome (serum uric acid levels as indicators) [1]: effective for the prevention of tumor lysis syndrome | Serum uric acid level (UA), Case 2 ([2]; Case 2 (AML), fifth day of febuxostat 10 mg/day, 1.9 mg/dL before administration): 2.3 mg/dL | Urinary excretion level of uric acid (urinary UA), Case 2 ([2]; Case 2, fifth day of febuxostat 10 mg/day, 0.8 g/day before administration): 1.6 g/day | Estimated glomerular filtration rate (eGFR), Case 2 ([2]; Case 2, fifth day of febuxostat 10 mg/day, 101 mL/min before administration): 99 mL/min | Acute renal failure ([2]; all cases, febuxostat 10 mg/day with chemotherapy): in all cases, acute renal failure was prevented | Serum uric acid levels relative to normal levels ([2]; all cases, prophylactic febuxostat 10 mg with chemotherapy, normal level 7.5 mg/dL or less): maintain the serum uric acid levels within or lower them to within normal levels | Urinary excretion level of uric acid (urinary UA), average ([2]; cases where urine collection was possible, fifth day of febuxostat 10 mg/day, 1.2 g/day on average before administration): 0.9 g/day | Serum uric acid level (UA), average ([2]; fifth day of febuxostat 10 mg once daily oral, average of 7 cases, 6.3 mg/dL on average before administration): 4.6 mg/dL | Estimated glomerular filtration rate (eGFR), average ([2]; fifth day of febuxostat 10 mg once daily, average, 69.7 mL/min on average before administration): 76.9 mL/min | Urinary excretion level of uric acid (urinary UA), severe case with high WBC ([2]; severe case in which WBC was high, fifth day of febuxostat 10 mg/day, 2.4 g/day before administration): 0.7 g/day | Serum creatinine (Cre) ([3]; Day 4, after 3 days of febuxostat 60 mg/day, 0.87 mg/dL before administration): 0.73 mg/dL | Estimated glomerular filtration rate (eGFR) ([3]; Day 4, after 3 days of febuxostat 60 mg/day, 53 mL/min before administration): 64 mL/min | Serum uric acid level (UA) ([3]; Day 4, after 3 days of oral febuxostat 60 mg/day, person, MDS, 9.7 mg/dL on the day before administration): 1.7 mg/dL | Reduction of serum uric acid level ([3]; Day 4 vs day before administration, febuxostat 60 mg/day for 3 days): 82.4%
